Reference: patent US9420799B2, “Method for controlling nematode pests” (Syngenta Participations AG, priority 2011, dated 2016)

System: soybean cyst nematode (SCN)
Assay: Yield response field trials: soybean seed treated with Pasteuria nishizawae, compared with seed not treated with Pasteuria
Assay type: in vivo, Heterodera glycines
Conditions: for Yield Response for Resistant Varieties / Yield Response for Susceptible Varieties: approx. 1×10^7 spores/seed, percent yield increase vs seeds not treated with Pasteuria, averaged; for Yield Response for Susceptible Varieties: SCN susceptible soybean varieties
Method: Yield Response Experiment
Multiple field trials were conducted across the United States Midwest region. Baseline nematode populations were determined by sampling from 4 untreated plots. Samples were taken (10 cores per plot) at a depth of 6-8 inches (approx. 15.2-20.3 cm). Samples were stored in a cooler until laboratory assays (eggs/100 cc) were performed.
To allow for sufficient viability to assess results properly, both SCN resistant and susceptible varieties were treated with an insecticide and fungicide seed treatment (CRUISERMAXX seed treatment for beans available from Syngenta Crop Protection, LLC including thiamethoxam (22.61%); mefenoxam (1.70%) and fludioxonil (1.12%)). In addition for some test groups Pasteuria nishizawae treatment was applied at a rate of approximately 1×10^7 spores/seed. Percent yield increase was determined by comparing seeds treated with Pasteuria to those not treated with Pasteuria.
The results of 119 separate trials were sorted according to initial SCN pressure at trial location. Yield data were averaged.

Substance: Pasteuria nishizawae
- Yield Response for Resistant Varieties (SCN resistant soybean varieties, SCN pressure 0 eggs/100 cc): 0.3%
- Yield Response for Resistant Varieties (SCN resistant soybean varieties, SCN pressure 1-500 eggs/100 cc): 0.7%
- Yield Response for Resistant Varieties (SCN resistant soybean varieties, SCN pressure 501-1000 eggs/100 cc): 2.6%
- Yield Response for Resistant Varieties (SCN resistant soybean varieties, SCN pressure >1000 eggs/100 cc): 5.2%
- Yield of resistant varieties, result in words (SCN resistant soybean varieties, all pest pressures): showed increase yield over non-Pasteuria treated soybean seed regardless of pest pressure
- Yield Response for Susceptible Varieties (SCN pressure 0 eggs/100 cc): 1.3%
- Yield Response for Susceptible Varieties (SCN pressure 1-500 eggs/100 cc): 1.0%
- Yield Response for Susceptible Varieties (SCN pressure 501-1000 eggs/100 cc): 0.8%
- Yield Response for Susceptible Varieties (SCN pressure >1000 eggs/100 cc): 0.0%
- Yield of varieties with no resistance or tolerance to SCN, result in words (soybean varieties having no resistance or tolerance to SCN, benefit mostly in absence of or with low pest pressure): generally benefitted from treatment with Pasteuria
